Results taken from Sander's compilation of Henry's law constants (doi:10.1021/je050308b).
Several values for one entry are separate records, joined by “and”; a condition that tells them apart may be missing. Equal values may be shown once.

Assay: Henry solubility constant Hcp at 298.15 K (mol/(m3 Pa))
Conditions: reference: Lau et al. (2006)

SMILES	Henry solubility constant Hcp
Brc1ccc(Oc2cc(Br)c(Br)c(Br)c2Br)cc1 [2,3,4,4',5-pentabromodiphenyl ether]	0.62 and 0.77
Brc1ccc(Oc2c(Br)cc(Br)cc2Br)c(Br)c1 [2,2',4,4',6-pentabromodiphenyl ether]	0.33 and 0.32
Clc1ccccc1-c1ccccc1 [2-chlorobiphenyl]	0.03 and 0.023
Brc1ccc(Oc2cc(Br)c(Br)cc2Br)c(Br)c1 [2,2',4,4',5-pentabromodiphenyl ether]	0.62 and 0.33
Brc1ccc(Oc2ccc(Br)cc2)cc1 [4,4'-dibromodiphenyl ether]	0.083 and 0.071
Clc1ccc(-c2cc(Cl)c(Cl)cc2Cl)cc1Cl [2,3',4,4',5-pentachlorobiphenyl]	0.011 and 0.0056
Brc1ccc(Oc2ccc(Br)cc2Br)cc1 [2,4,4'-tribromodiphenyl ether]	0.11 and 0.077
Brc1ccc(Oc2ccccc2)cc1 [4-bromodiphenyl ether]	0.05 and 0.043
Clc1ccc(-c2ccccc2Cl)cc1 [2,4'-dichlorobiphenyl]	0.026 and 0.019
Brc1ccc(Oc2ccc(Br)cc2Br)c(Br)c1 [2,2',4,4'-tetrabromodiphenyl ether]	0.16 and 0.17
Clc1ccc(-c2ccc(Cl)c(Cl)c2)cc1Cl [3,3',4,4'-tetrachlorobiphenyl]	0.031 and 0.018
Clc1ccc(-c2ccc(Cl)cc2)cc1 [4,4'-dichlorobiphenyl]	0.05 and 0.033
